Reference: patent US8445677B2, “Substituted pyrimidyl guanidine derivatives having anticancer activity” (University of Southern California, priority 2008, dated 2013)

Tests used:
[1] = test system: SkBr-3; assay: MTT cytotoxicity assay (Example 2); assay type: cell-based, human
Source text: (§1) Human breast cancer cell lines MDA-MB-435 and SkBr-3 were purchased from the American Type Culture Collection (Manassas, Va.). The HCT116 P53+/+ and HCT116 P53−/− cell lines were kindly provided by Dr. Bert Vogelstein (Johns Hopkins Medical Institutions, Baltimore, Md.). The HEY human ovarian carcinoma cell line was kindly provided by Dr. Louis Dubeau (University of Southern California Norris Cancer Center). Cells were maintained as monolayer cultures in media supplemented with 10% fetal bovine serum (Gemini-Bioproducts, Woodland, Calif.) and 2 mmo/lL-glutamine at 37° C. in a humidified atmosphere of 5% C02. To remove the adherent cells from the flask for passaging and counting, cells were washed with PBS without calcium or magnesium, incubated with a small volume of 0.25% trypsin-EDTA solution (Sigma-Aldrich, St. Louis, Mo.) for 5-10 min, and washed with culture medium and centrifuged. All experiments were performed using cells in exponential growth stage. Cells were routinely checked for mycoplasma contamination using a PCR-based assay (Stratagene, Cambridge, UK).
(§2) Stock solutions (10 mM) of all compounds were prepared in DMSO and stored at −20° C. Further dilutions were made fresh in cell-culture media just prior to cell treatment.
(§3) Cytotoxicity was assessed by a 3-(4,5-dimethylthiazol-2-yl)-2,5-diphenyltetrazolium bromide (MTT) assay as previously described.^23 Cells were seeded in 96-well plates and allowed to attach overnight. Cells were subsequently treated with continuous exposure to the corresponding drug for 72 h. An MTT solution (at a final concentration of 0.5 mg/ml) was added to each well, and cells were incubated for 4 h at 37° C. After removal of the medium, DMSO was added and the absorbance was read at 570 nm. All assays were performed in triplicate. The IC50 was determined for each drug from a plot of log (drug concentration) versus percentage of cells killed.

[2] = test system: HEY; assay: MTT cytotoxicity assay (Example 2); assay type: cell-based, human; conditions: 72 h
Source text: as §1, §2, §3

[3] = test system: HCT116 p53−/−; assay: MTT cytotoxicity assay (Example 2); assay type: cell-based
Source text: as §1, §2, §3

[4] = test system: MDA-MB-435; assay: MTT cytotoxicity assay (Example 2); assay type: cell-based; conditions: Homo sapiens, MDA-MB-435, 72 h
Source text: as §1, §2, §3

[5] = test system: HCT116 p53+/+; assay: MTT cytotoxicity assay (Example 2); assay type: cell-based
Source text: as §1, §2, §3

[6] = test system: NIH3T3; assay: MTT cytotoxicity assay (Example 1); assay type: cell-based, mouse; conditions: Mus musculus, NIH3T3, 72 h
Source text: (§4) Human breast cancer cells MDA-MB-435 were purchased from the American Type Culture Collection (Manassas, Va.). The HCT116 p53+/+ and HCT116 p53−/− cells were kindly provided by Dr. Bert Vogelstein (Johns Hopkins Medical Institutions, Baltimore, Md.). The human ovarian carcinoma cell line (HEY) which is naturally resistant to cisplatin, was kindly provided by Dr. Louis Dubeau, University of Southern California (USC) Norris Cancer Center, and NIH3T3 normal mouse fibroblast cells were kindly provided by Dr. Michael Press from USC. HEY and NIH3T3 cells were maintained as monolayer cultures in RPMI, HCT 116 cells in McCoy1s5A media and MDA-MB 435 in DMEM. Media were purchased from (Mediatech, Virginia) and supplemented with 10% fetal bovine serum (Gemini-Bioproducts, Woodland, Calif.), 2 mM L-glutamine and 5% Penicillin/streptomycin from Bio whittaker were purchased from VWR. Cells were incubated at 37° C. in a humidified atmosphere of 5% CO2. To remove the adherent cells from the flask for passaging and counting, cells were washed with PBS without calcium or magnesium, incubated with a small volume of 0.25% trypsin-EDTA solution (Sigma-Aldrich, St. Louis, Mo.) for 5-10 min, and washed with culture medium and centrifuged. All experiments were performed using cells at exponential growth stage. Cells were routinely checked for mycoplasma contamination using a PCR-based assay (Stratagene, Tex., USA).
(§5) Stock solutions (10 mM) of all compounds were prepared in DMSO and stored at −20° C. Further dilutions were made fresh in PBS or cell-culture media right before cell treatment.
(§6) Cytotoxicity was assessed by a 3-(4,s-dimethylthiazol-2-yl)-2,5-diphenyltetrazolium bromide (MTT) assay as previously described.^24 Briefly, cells were seeded in 96-well microtiter plates and allowed to attach overnight. Cells were subsequently treated with continuous exposure to the corresponding drug for 72 h. A MTT solution (at a final concentration of 0.5 mglml) was added to each well, and cells were incubated for 4 h at 37° C. After removal of the medium, DMSO was added and the absorbance was read at 570 nm. All assays were done in triplicate. The IC50 was then determined for each drug from a plot of log (drug concentration) versus percentage of cells killed.

[7] = test system: HCT116 p53−/−; assay: MTT cytotoxicity assay (Example 1); assay type: cell-based; conditions: MTT, 72 h
Source text: as §4, §5, §6

[8] = test system: HCT116 p53+/+; assay: MTT cytotoxicity assay (Example 1); assay type: cell-based; conditions: Homo sapiens, HCT-116, 72 h, MTT, 72 h
Source text: as §4, §5, §6

[9] = test system: HEY; assay: MTT cytotoxicity assay (Example 1); assay type: cell-based, human; conditions: Homo sapiens, 72 h
Source text: as §4, §5, §6

[10] = test system: MDA-MB-435; assay: MTT cytotoxicity assay (Example 1); assay type: cell-based, human; conditions: Homo sapiens, MDA-MB-435, 72 h
Source text: as §4, §5, §6

[11] = Homo sapiens, HCT-116, 72 h, MTT, 72 h, read-out: IC50 Hct116 p53+/+
[12] = MTT, 72 h, read-out: IC50 Hct116 p53+/+

Compound | IC50 ([1]; Homo sapiens, SK-BR-3, 72 h) [µM] | IC50 ([2]; Homo sapiens) [µM] | IC50 ([3]; Homo sapiens, HCT-116, 72 h) [µM] | IC50 [4] [µM] | IC50 [5, 11] [µM] | also measured
COc1cccc(NCc2ccc(O)c3ncccc23)c1 [19-SMD58-14] | 2.9 ± 0.3 | 1.9 | 2.1 ± 0.1 | 5 ± 0.9 | 1.3 ± 0.9 | 
Oc1ccc(Cc2ccc(O)c3ncccc23)c2cccnc12 [11-SMD58-1] | 1.4 ± 0.8 | 0.1 | 0.25 ± 0.5 | 2.8 ± 1.7 | 0.45 | IC50 ([5]; Homo sapiens, HCT-116, p53+/+ cell line, read-out: IC50): < 1 µM
Cc1cccnc1NCc1ccc(O)c2ncccc12 [23-SMD58-22] | 3.3 ± 0.7 | 2.8 | 1.5 ± 0.1 | 3.1 ± 0.6 | 1.4 ± 0.4 | 
CN1CCN(Cc2ccc(O)c3ncccc23)CC1 [14-SMD58-7] | 3.2 ± 0.1 | 0.4 | 1.7 ± 0.2 | 3.9 ± 0.1 | 0.7 ± 0.4 | 
Cc1cc(C)nc(NC(=N)Nc2cc(Oc3ccccc3)ccc2Cl)n1 [1-SMD6] | < 10 |  | 1.5 ± 0.1 | 8 ± 0.5 |  | IC50 ([1]; 72 h): 5 ± 1 µM; IC50 [2]: 3.5 ± 1.6 µM; IC50 [5, 12]: 1 ± 0.7 µM
CCOC(=O)C1CCCN(Cc2ccc(O)c3ncccc23)C1 (stereo not drawn) [12-SMD58] | 2.2 ± 0.9 | 0.9 | 2 ± 0.1 | 4.2 ± 1.2 | 1.6 ± 0.4 | 
CCN1CCN(Cc2ccc(O)c3ncccc23)CC1 [22-SMD58-20] | 4.1 ± 0.1 | 1.4 ± 0.2 | 2.1 ± 1.2 | 7.2 ± 0.4 | 2.1 | 
Cc1[nH]c(Nc2nc3ccccc3s2)nc(=O)c1Cc1ccccc1 [7-SMD18-8] | > 10 |  | > 10 | > 10 | 10 | IC50 ([3]; 72 h): 7.2 µM; IC50 [5, 12]: > 10 µM
CCCOc1ccc(NC(=N)Nc2nc(C)cc(C)n2)cc1 [3-SMD6-5] | > 10 | > 10 | 8.1 ± 0.6 | > 10 | > 10 | 
COC(=O)/C=C1/N=C(Nc2nc3ccccc3s2)NC1=O [5-SMD18] |  | < 10 | 6.5 | 7 ± 1.1 | < 10 | IC50 ([1]; 72 h): 2.5 ± 0.8 µM; IC50 [2]: 7.2 ± 0.2 µM; IC50 [5, 12]: 7.2 ± 0.1 µM
Oc1ccc(CN2CCN(c3ccccn3)CC2)c2cccnc12 [21-SMD58-19] | 3 ± 1 | 2.8 ± 0.6 | 2.2 ± 0.1 | 2.7 | 2.6 ± 0.7 | 
CCC(=O)NC(c1cccs1)c1cc([N+](=O)[O-])c2cccnc2c1O (stereo not drawn) [26-SMD58-27] | 4.6 ± 0.8 | 3.2 ± 0.8 | 4.2 ± 1.2 | 5.6 | 5 ± 0.4 | 
CCC(=O)NC(c1ccc(OC)cc1)c1cc([N+](=O)[O-])c2cccnc2c1O (stereo not drawn) [25-SMD58-26] | > 10 | 3.2 | 7.1 ± 1.1 | 7.5 | 6.8 ± 0.2 | 
Cc1cccc(NCc2ccc(O)c3ncccc23)c1 [17-SMD58-12] | 4 ± 0.5 | 1.5 ± 0.8 | 1.9 ± 0.4 | 6.6 | 1.8 ± 0.4 | 
CCOC(=O)N1CCN(Cc2ccc(O)c3ncccc23)CC1 [13-SMD58-5] | 3.7 ± 0.5 | 1.9 | 1 ± 0.1 | 5.3 ± 0.1 | 2.1 ± 0.2 | 
CCOc1ccc(NCc2ccc(O)c3ncccc23)cc1 [16-SMD58-11] | 3 ± 1.3 | 1.7 ± 0.1 | 1.2 ± 0.2 | 4.9 ± 1.1 | 2.3 ± 0.1 | 
CC(C)(C)c1cc(=O)[nH]c(Nc2nc3ccccc3s2)n1 [9-SMD18-15-BAS 125346 60] | > 10 |  | 9.9 | 7.5 | 9.9 | 
CCCn1c(=O)c(C(=O)Nc2nnc(CC(C)C)s2)c(O)c2ccccc21 [Compound 29] |  |  |  |  |  | IC50 [6]: > 10 µM; IC50 ([7]; Homo sapiens, HCT-116, 72 h): > 10 µM; IC50 [8]: > 20 µM; IC50 [9]: > 20 µM; IC50 [10]: > 20 µM
COc1ccc(/C=N/Nc2nc3nonc3nc2Nc2ccc(F)cc2)cc1Br [Compound 4] |  |  |  |  |  | IC50 [6]: 6 µM; IC50 ([7]; Homo sapiens, HCT-116, 72 h): 3 µM; IC50 [7]: 2 µM; IC50 [8]: 4 µM; IC50 [9]: 10 µM; IC50 [10]: 10 µM
CCOC(=O)Cc1cc(=O)nc(Nc2nc3ccccc3s2)[nH]1 [6-SMD18-1] | > 10 |  | 4 ± 2 | 9.5 | 3.4 ± 0.2 | 
COc1ccc(/C=N/Nc2nc3nonc3nc2Nc2ccccc2OC)cc1Br [Compound 9] |  |  |  |  |  | IC50 [6]: > 10 µM; IC50 ([7]; Homo sapiens, HCT-116, 72 h): > 10 µM; IC50 [8]: > 20 µM; IC50 [9]: > 10 µM; IC50 [10]: > 20 µM
CC(C)c1cc(=O)[nH]c(Nc2nc3ccccc3s2)n1 [8-SMD18-14] | > 10 |  | 3.6 ± 1.8 | > 10 | 4.5 ± 1.5 | 
COC(=O)c1ccc(/C=N/Nc2nc3nonc3nc2Nc2ccccc2F)cc1 [Compound 1] |  |  |  |  |  | IC50 [6]: > 10 µM; IC50 ([7]; Homo sapiens, HCT-116, 72 h): 10 µM; IC50 [8]: > 10 µM; IC50 [9]: 10 µM; IC50 [10]: 5 µM
COc1cc(/C=N/Nc2nc3nonc3nc2Nc2ccc(Cl)cc2)ccc1O [Compound 7] |  |  |  |  |  | IC50 [6]: > 10 µM; IC50 ([7]; Homo sapiens, HCT-116, 72 h): 5.5 µM; IC50 [8]: > 10 µM; IC50 [9]: 2 µM; IC50 [10]: > 10 µM
